Key:
Hepatitis B virus = experiment: Antiviral activity against Hepatitis B virus infected in human HepG2.2.15 cells assessed as inhibition of viral DNA synthesis incubated for 2 days followed by replacement of fresh medium containing compound and measured at day 10 by RT-PCR analysis; format: functional, organism-based
HepG2 2.2.15 = experiment: Cytotoxicity against human HepG2.2.15 cells assessed as reduction in cell viability incubated for 12 hrs followed by replacement of fresh medium containing compound and measured after 2 days by CCK-8 assay; format: functional
[1] = Selectivity index, ratio of CC50 for cytotoxicity against human HepG2.2.15 cells to EC50 for HBV infected in human HepG2.2.15 cells; format: toxicity, cell-based; conditions: read-out: Ratio CC50/EC50
HK-2 [2] = experiment: Cytotoxicity against human HK2 cells assessed as cell viability at 25 to 100 uM after 72 hrs by MTT assay relative to control; format: cell-based; conditions: hk-2, 72 h
HK-2 [3] = experiment: Induction of mitochondrial membrane dysfunction in human HK2 cells assessed as effect mitochondrial membrane potential at 100 uM after 72 hrs by JC-1 staining based flow cytometry; format: cell-based; conditions: hk-2, 72 h
HK-2 [4] = experiment: Induction of apoptosis in human HK2 cells assessed as nuclear pyknosis at 25 to 100 uM measured after 72 hrs by Hoechst 33342 staining based fluorescence assay; format: cell-based; conditions: hk-2, 72 h
HK-2 [5] = experiment: Induction of apoptosis in human HK2 cells assessed as dense staining at 25 to 100 uM measured after 72 hrs by Hoechst 33342 staining based fluorescence assay; format: cell-based; conditions: hk-2, 72 h
HK-2 [6] = experiment: Induction of apoptosis in human HK2 cells assessed as presence of apoptotic bodies at 25 to 100 uM measured after 72 hrs by Hoechst 33342 staining based fluorescence assay; format: cell-based; conditions: hk-2, 72 h
HK-2 [7] = experiment: Nephrotoxicity in human HK2 cells assessed as decrease in cell apoptosis at 25 to 100 uM measured after 72 hrs by Hoechst 33342 staining based fluorescence assay relative to ADV; format: toxicity; set-up: scale not given: the % may be the effect or the level left; conditions: hk-2, 72 h
HK-2 [8] = experiment: Induction of apoptosis in human HK2 cells assessed as early apoptotic cells at 25 uM measured after 72 hrs by Annexin V-FITC/propidium iodide staining based flow cytometry (reference value: 8.1%); format: cell-based; conditions: hk-2, 72 h
HK-2 [9] = experiment: Induction of apoptosis in human HK2 cells assessed as early apoptotic cells at 50 uM measured after 72 hrs by Annexin V-FITC/propidium iodide staining based flow cytometry (reference value: 8.1%); format: cell-based; conditions: hk-2, 72 h
HK-2 [10] = experiment: Induction of apoptosis in human HK2 cells assessed as early apoptotic cells at 100 uM measured after 72 hrs by Annexin V-FITC/propidium iodide staining based flow cytometry (reference value: 8.1%); format: cell-based; conditions: hk-2, 72 h
HK-2 [11] = experiment: Induction of apoptosis in human HK2 cells assessed as increase in Bax/Bcl2 ratio at 25 to 100 uM after 72 hrs by Western blot analysis; format: cell-based; conditions: hk-2, 72 h
HK-2 [12] = experiment: Induction of apoptosis in human HK2 cells assessed as induction of cleaved caspase 3 levels at 25 to 100 uM after 72 hrs by Western blot analysis; format: cell-based; conditions: hk-2, 72 h
[13] = target: T1, Solute carrier family 22 member 6 (Homo sapiens, UniProt Q4U2R8); experiment: Substrate activity at human OAT1 expressed in HEK293 cells harboring pEGFP assessed as compound uptake measured after 20 mins by UPLC-MS/MS method; format: ADME, cell-based; conditions: hek293, 20 min
T1 sequence (Q4U2R8 whole entry): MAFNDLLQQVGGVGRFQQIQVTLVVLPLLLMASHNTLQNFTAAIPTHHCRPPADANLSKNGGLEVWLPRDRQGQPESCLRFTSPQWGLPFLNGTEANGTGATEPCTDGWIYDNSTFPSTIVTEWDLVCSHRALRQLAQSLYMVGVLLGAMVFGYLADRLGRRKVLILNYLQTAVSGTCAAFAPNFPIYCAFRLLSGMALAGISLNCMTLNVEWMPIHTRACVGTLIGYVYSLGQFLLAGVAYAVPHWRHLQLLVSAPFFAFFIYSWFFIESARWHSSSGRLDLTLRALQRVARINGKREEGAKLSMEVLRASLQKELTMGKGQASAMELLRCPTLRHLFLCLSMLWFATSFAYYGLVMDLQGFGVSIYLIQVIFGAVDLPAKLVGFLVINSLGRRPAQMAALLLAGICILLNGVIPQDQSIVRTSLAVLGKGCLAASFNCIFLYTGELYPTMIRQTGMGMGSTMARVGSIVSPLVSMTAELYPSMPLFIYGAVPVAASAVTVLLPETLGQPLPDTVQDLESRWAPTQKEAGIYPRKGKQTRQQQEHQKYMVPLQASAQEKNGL

HEK293 [14] = experiment: Substrate activity in human HEK293 cells harboring pEGFP-N1 empty vector assessed as compound uptake measured at 5 to 40 mins by UPLC-MS/MS method; format: ADME, cell-based
[15] = target: T1, Solute carrier family 22 member 6; experiment: Inhibition of human OAT1 expressed in HEK293 cells assessed as P-amino hippuric acid uptake inhibition incubated for 10 mins by UPLC-MS/MS method; format: ADME, cell-based
[16] = target: T2, OAT1 (solute carrier family 22 member 6) (Homo sapiens, UniProt Q4U2R8); experiment: Safety index, ratio of Adefovir dipivoxil IC50 to compound IC50 for human OAT1 expressed in HEK293 cells; format: ADME, cell-based; conditions: read-out: Ratio IC50
T2 sequence (Q4U2R8 whole entry): T1 sequence (Q4U2R8 whole entry)

HEK293 [17] = experiment: Cytotoxicity against human HEK293 cells harboring pEGFP-N1 empty vector assessed as reduction in cell viability after 1 hr by MTT assay; format: cell-based; conditions: hek293, 1 h
[18] = AUC (0 to t) in Sprague-Dawley rat at 100 mg/kg, po measured up to 24 hrs by LC-MS/MS analysis; format: ADME, organism-based; set-up: dose 100 mg/kg, time < 24 hr, route oral; conditions: in vivo
[19] = Volume of distribution in Sprague-Dawley rat at 100 mg/kg, po measured up to 24 hrs by LC-MS/MS analysis; format: ADME, organism-based; conditions: in vivo
[20] = Drug distribution in mouse liver at 5.47 mg/kg, po measured at 30 mins by LC-MS/MS analysis; format: ADME, organism-based; conditions: read-out: Drug uptake
[21] = Drug distribution in mouse liver at 5.47 mg/kg, po measured at 60 mins by LC-MS/MS analysis; format: ADME, organism-based; conditions: read-out: Drug uptake
[22] = Drug distribution in mouse liver at 5.47 mg/kg, po measured at 3 hrs by LC-MS/MS analysis; format: ADME, organism-based; conditions: read-out: Drug uptake
[23] = Drug distribution in mouse liver at 5.47 mg/kg, po measured at 6 hrs by LC-MS/MS analysis; format: ADME, organism-based; conditions: read-out: Drug uptake
[24] = Drug distribution in mouse liver at 5.47 mg/kg, po measured at 24 hrs by LC-MS/MS analysis; format: ADME, organism-based; conditions: read-out: Drug uptake
[25] = Potency index, ratio of ADV drug concentration to compound concentration in mouse liver measured at 30 mins; format: ADME, tissue-based; conditions: in vivo, 0.5 h
[26] = Potency index, ratio of ADV drug concentration to compound concentration in mouse liver measured at 60 mins; format: ADME, tissue-based; conditions: in vivo, 1 h
[27] = Potency index, ratio of ADV drug concentration to compound concentration in mouse liver measured at 3 hrs; format: ADME, tissue-based; conditions: in vivo
[28] = Potency index, ratio of ADV drug concentration to compound concentration in mouse liver measured at 6 hrs; format: ADME, tissue-based; conditions: in vivo
[29] = Potency index, ratio of ADV drug concentration to compound concentration in mouse liver measured at 24 hrs; format: ADME, tissue-based; conditions: in vivo
HEK293 [30] = experiment: Cytotoxicity against human HEK293 cells expressing OAT1 assessed as reduction in cell viability after 1 hr by MTT assay; format: ADME, cell-based; conditions: hek293, 1 h
[31] = substrate: [H][C@@]12C[C@H](O)CC[C@]1(C)[C@@]1([H])CC[C@@]3(C)[C@@]([H])(CC[C@]3([H])[C@H](C)CCC(=O)OCCCOP(=O)(COCCn3cnc4c(N)ncnc43)OCCCOC(=O)[C@@H](C)N)[C@]1([H])[C@@H](O)C2; experiment: (§1) Substrate activity at human NTCP expressed in HEK293 cells harboring pEGFP assessed as Km for transporter-mediated drug uptake measured for 30 mins in presence of sodium chloride by UPLC-MS/MS analysis; format: cell-based
[32] = substrate: [H][C@@]12C[C@H](O)CC[C@]1(C)[C@@]1([H])CC[C@@]3(C)[C@@]([H])(CC[C@]3([H])[C@H](C)CCC(=O)OCCCOP(=O)(COCCn3cnc4c(N)ncnc43)OCCCOC(=O)[C@H](N)C(C)C)[C@]1([H])[C@@H](O)C2; experiment: as §1; format: cell-based
[33] = substrate: [H][C@@]12C[C@H](O)CC[C@]1(C)[C@@]1([H])CC[C@@]3(C)[C@@]([H])(CC[C@]3([H])[C@H](C)CCC(=O)OCCCOP(=O)(COCCn3cnc4c(N)ncnc43)OCCCOC(=O)[C@H](N)CC(C)C)[C@]1([H])[C@@H](O)C2; experiment: as §1; format: cell-based
[34] = substrate: [H][C@@]12C[C@H](O)CC[C@]1(C)[C@@]1([H])CC[C@@]3(C)[C@@]([H])(CC[C@]3([H])[C@H](C)CCC(=O)OCCCOP(=O)(COCCn3cnc4c(N)ncnc43)OCCCOC(=O)[C@H](N)[C@@H](C)CC)[C@]1([H])[C@@H](O)C2; experiment: as §1; format: cell-based

CC(C)C[C@@H](N)C(=O)OCCCOP(=O)(COCCn1cnc2c(N)ncnc21)OCCCOC(=O)CC[C@@H](C)[C@H]1CC[C@H]2[C@@H]3[C@@H](O)C[C@@H]4C[C@H](O)CC[C@]4(C)[C@H]3CC[C@]12C (stereo not given in full) gave an EC50 (Hepatitis B virus) of 0.42 µM, a CC50 (HepG2 2.2.15) of 446 µM and a selectivity ratio [1] of 1060. For the same molecule, the Activity (HK-2 [2]) was “Non-Toxic”, the Activity (HK-2 [3]) was “Non-Toxic” and the Activity (HK-2 [4]) was “Non-Toxic”. For the same molecule, the Activity (HK-2 [5]) was “Non-Toxic”, the Activity (HK-2 [6]) was “Non-Toxic” and the Activity (HK-2 [7]) was 37.4%. It also gave an Activity (HK-2 [8]) of 9.7%, an Activity (HK-2 [9]) of 6.1% and an Activity (HK-2 [10]) of 5.9%. For the same molecule, the Activity (HK-2 [11]) was “Non-Toxic”, the Activity (HK-2 [12]) was “Non-Toxic” and the Activity [13] was under 60 pmol/min/mg. For the same molecule, the Activity (HEK293 [14]) was under 60 pmol/min/mg, the IC50 [15] was 286 µM and the selectivity ratio [16] was 21. The Activity (HEK293 [17]) was “Non-Toxic”, the AUCt [18] was 4645.705 µg/L/h and the Vd [19] was 78.716 L/kg. The concentration at 0.5 h [20] was 305 ng/g, the concentration at 1 h [21] was 1070 ng/g and the concentration at 3 h [22] was 1160 ng/g. The concentration at 6 h [23] was 721 ng/g, the concentration at 24 h [24] was 695 ng/g and the Ratio [25] was 4.2. For the same molecule, the Ratio [26] was 6.5, the Ratio [27] was 3.4 and the Ratio [28] was 4.8. The Ratio [29] was 8.8 and the Activity (HEK293 [30]) was “Non-Toxic”.

B1: Hepatic sodium/bile acid cotransporter (Homo sapiens) (protein)
chain: MEAHNASAPFNFTLPPNFGKRPTDLALSVILVFMLFFIMLSLGCTMEFSKIKAHLWKPKGLAIALVAQYGIMPLTAFVLGKVFRLKNIEALAILVCGCSPGGNLSNVFSLAMKGDMNLSIVMTTCSTFCALGMMPLLLYIYSRGIYDGDLKDKVPYKGIVISLVLVLIPCTIGIVLKSKRPQYMRYVIKGGMIIILLCSVAVTVLSAINVGKSIMFAMTPLLIATSSLMPFIGFLLGYVLSALFCLNGRCRRTVSMETGCQNVQLCSTILNVAFPPEVIGPLFFFPLLYMIFQLGEGLLLIAIFWCYEKFKTPKDKTKMIYTAATTEETIPGALGNGTYKGEDCSPCTA
B1 gave a Km [31] of 48.2 µM, a Vmax [31] of 8.28 µmol/min/mg and a Km [32] of 113 µM. The Vmax [32] was 7.95 µmol/min/mg, the Km [33] was 45.5 µM and the Vmax [33] was 9.61 µmol/min/mg. It also gave a Km [34] of 102 µM and a Vmax [34] of 6.86 µmol/min/mg.

Reference: ChEMBL document CHEMBL4346741, “Synthesis, pharmacological evaluation, and mechanistic study of adefovir mixed phosphonate derivatives bearing cholic acid and l-amino acid moieties for the treatment of HBV” (Bioorg Med Chem, 2019)
